Laboratory results reported in publication PMC5516794 (Journal of medicinal chemistry, 2017).

Key:
TMEM16A [1] = target: T1, TMEM16A (Homo sapiens, UniProt Q5XXA6); assay: Short-circuit current assay in TMEM16A-expressing FRT cells; type: cell-based; settings: Figure S2A
T1 sequence (Q5XXA6 1-986): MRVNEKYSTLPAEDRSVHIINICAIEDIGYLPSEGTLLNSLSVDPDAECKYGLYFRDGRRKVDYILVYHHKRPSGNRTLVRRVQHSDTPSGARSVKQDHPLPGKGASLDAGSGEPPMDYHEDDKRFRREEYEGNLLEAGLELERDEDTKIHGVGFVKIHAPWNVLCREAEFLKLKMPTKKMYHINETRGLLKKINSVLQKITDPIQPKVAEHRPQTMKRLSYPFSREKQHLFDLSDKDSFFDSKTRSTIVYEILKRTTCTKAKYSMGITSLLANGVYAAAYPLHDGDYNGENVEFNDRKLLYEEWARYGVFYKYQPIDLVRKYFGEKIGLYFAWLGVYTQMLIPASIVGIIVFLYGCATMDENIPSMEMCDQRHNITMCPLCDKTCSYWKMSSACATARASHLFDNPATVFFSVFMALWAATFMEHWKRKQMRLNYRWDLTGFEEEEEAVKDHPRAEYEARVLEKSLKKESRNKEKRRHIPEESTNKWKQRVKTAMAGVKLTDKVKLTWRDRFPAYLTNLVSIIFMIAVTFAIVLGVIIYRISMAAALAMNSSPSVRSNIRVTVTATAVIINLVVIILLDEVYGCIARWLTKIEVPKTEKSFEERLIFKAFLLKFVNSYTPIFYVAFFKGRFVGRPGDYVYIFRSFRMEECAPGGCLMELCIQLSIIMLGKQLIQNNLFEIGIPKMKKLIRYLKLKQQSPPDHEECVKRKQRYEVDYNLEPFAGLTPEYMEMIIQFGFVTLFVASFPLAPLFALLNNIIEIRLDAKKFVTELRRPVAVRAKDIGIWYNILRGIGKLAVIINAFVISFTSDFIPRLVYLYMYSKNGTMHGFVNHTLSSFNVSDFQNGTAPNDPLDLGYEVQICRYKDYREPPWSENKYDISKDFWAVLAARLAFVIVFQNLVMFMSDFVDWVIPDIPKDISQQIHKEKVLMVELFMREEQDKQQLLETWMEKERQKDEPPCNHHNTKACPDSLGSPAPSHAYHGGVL

TMEM16A [2] = target: T1, TMEM16A; assay: Patch clamp, inside-out membrane patches from TMEM16A-expressing FRT cells; type: cell-based
mouse ileum = assay: Ex vivo intestinal contractility; settings: added to bath, concentration-dependent
cytoplasmic calcium = assay: Fluo-4 fluorescence measurement of ATP-stimulated cytoplasmic calcium elevation; type: cell-based; settings: 1 μM
[3] = Shelf stability as solid or DMSO stock; type: physicochemical; settings: as a solid or in DMSO stock solution

- ionomycin- and carbachol-activated chloride conductance (TMEM16A [1]): inhibited
- effect on TMEM16A membrane currents (TMEM16A [2]; 250 nM by perfusion, inside-out patch, free Ca2+ 305 nM): rapid inhibition of membrane currents
- recovery of membrane currents after washout (TMEM16A [2]; after 250 nM, washout): fully recovered following washout
- long-term shelf stability [3]: > 6 months
Compound: Cc1ccccc1NC(=O)c1c(NC(=O)C(F)(F)Br)sc2c1CCCCC2 [Compound 10bm]
- spontaneous isometric contractions of ileum (mouse ileum): strongly inhibited
- effect on ATP-stimulated cytoplasmic calcium (cytoplasmic calcium): not altered
